Measured values published in US20250113823A1, “Arthropod Control Compositions” (priority 2022, published 2025).

Key:
Format in all cases: in vivo
Aedes aegypti [1] = assay: Free flying room assay, spatial repellence with human volunteer
Source text: The goal of this large-scale test is to assess the propensity of stimulus released in the air to protect a human volunteer by limiting the mosquito presence in a protected space and the number of landing/biting. The protocol used to carry the test is following the guidelines indicated in WHO (2013; ISBN 978 92 4 150502 4).
A group of 50 Aedes aegypti female mosquitoes were introduced in one chamber of 25 m^3 one hour before the test started. The product was applied in the other chamber of 25 m^3 (“treated chamber”) and let evaporate for 30 minutes. The test started when the window separating the two chambers was opened in a tilt-on manner for another 30 minutes. Twenty minutes after the window was opened, a volunteer entered in the “treated chamber” and sat down for 10 minutes, exposing the forearm for the last 3 minutes to determine the probing activity (Protective Efficacy). Then, the connecting window was closed and the number of mosquitoes in each of the chambers was counted (Spatial Repellency). The negative controls were carried out following the same procedure but without the application of the stimulus. Three replicates of each treatment and of the negative control were conducted with three different volunteers.

Aedes aegypti [2] = assay: Arm-in-cage test on human volunteers; conditions: arm treated with 20%, three human volunteers
Description: The controlling effect, repellence & spatial repellence, according to the present invention is also determined according to an arm in the box method adapted from the WHO Guidelines for efficacy testing of mosquito repellents for human skin (WHO/CDS/NTD/WHOPES/2009.4). The readiness of 100 hungry female mosquitoes A. aegypti to a test substance is assessed by comparing the results of an untreated arm to a treated in when inserted into the cage (40×40×40 cm) for 30 seconds (negative control) three times. Further information is provided in the accompanying examples.
The Arm in the box method was adapted from the WHO Guidelines for efficacy testing of mosquito repellents for human skin (WHO/CDS/NTD/WHOPES/2009.4). The readiness of 100 hungry female mosquitoes A. aegypti to probe is assessed by inserting the untreated arm of human volunteers into the cage (40×40×40cm) for 30 seconds (negative control) in order to determine probing activity. Then, the product is applied onto the skin of the forearm of the human volunteer (1 mL per 600 cm^2) and after 5 minutes, this arm is inserted into the cage and exposed for 3 minutes. The assay take place in temperature (27±2° C.) and humidity (80±10% RH) regulated room on three different human volunteers.

Aedes aegypti [3] = assay: Warm Body assay, mosquito landings on treated warm body; conditions: Aedes aegypti, read-out: Percentage of repellence of mosquitoes Aedes aegypti landing on the warm body
Method in brief: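 Compounds in ethanol (100 μL, various concentrations) were applied to a sandblasted glass dish covering the warm body (28.3 cm^2), with ethanol as control. Landings were counted automatically from 30 non-blood-fed, sugar-fed Aedes aegypti Rockefeller females aged 5–10 days, under 150 lux.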

Anopheles gambiae = assay: as above
Method in brief: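 Compounds in ethanol, 100 μL at various concentrations, applied to a sandblasted glass dish (28.3 cm^2) covering a warm body simulating a host. Mosquito landings counted per stimulus against an ethanol-only control to gauge repellence.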

Question: Which results are given for CCCc1cc(OC)c(OC)c(OC)c1 [compound 1975, 1,2,3-trimethoxy-5-propylbenzene]?
Answer: mosquitoes landed on the volunteer (Aedes aegypti [1]; in 3 minutes, negative control 60.7±2.5 landings): 15.7±3.1; Spatial Repellence (Aedes aegypti [1]; large scale assay, 25 m3 chambers, compound released in the air): 43.9 ± 9.1%; Protective efficacy (Aedes aegypti [1]; large scale assay, probing on volunteer forearm, 3 minutes): 74.2 ± 4.4%; mosquito entered the treated chamber (Aedes aegypti [1]; negative control 82.5±3.7%): 46.3±7.5%; reduction of the number of mosquito Aedes aegypti landings (Aedes aegypti [2]): 99.4%±0.4%; pest or weed control at 3.2 µg/mL (Aedes aegypti [3]; 0.0032 mg/mL (Table 1)): 33%; pest or weed control at 7.1 µg/mL (Aedes aegypti [3]; 0.0071 mg/mL (Table 1)): 10%; pest or weed control at 16 µg/mL (Aedes aegypti [3]; 0.016 mg/mL (Table 1)): 0%; pest or weed control at 35.7 µg/mL (Aedes aegypti [3]; 0.0357 mg/mL (Table 1)): 66%; pest or weed control at 53 µg/mL (Aedes aegypti [3]; 0.053 mg/mL (Table 1)): 30%; pest or weed control at 80 µg/mL (Aedes aegypti [3]; 0.08 mg/mL (Table 1)): 93%; pest or weed control at 119 µg/mL (Aedes aegypti [3]; 0.119 mg/mL (Table 1)): 36%; pest or weed control at 178 µg/mL (Aedes aegypti [3]; 0.178 mg/mL (Table 1)): 83%; pest or weed control at 267 µg/mL (Aedes aegypti [3]; 0.267 mg/mL (Table 1)): 87%; pest or weed control at 400 µg/mL (Aedes aegypti [3]; 0.4 mg/mL (Table 1)): 94%; pest or weed control at 598 µg/mL (Aedes aegypti [3]; 0.598 mg/mL (Table 1)): 99%; pest or weed control at 890 µg/mL (Aedes aegypti [3]; 0.89 mg/mL (Table 1)): 95%; pest or weed control at 2000 µg/mL (Aedes aegypti [3]; 2 mg/mL (Table 1)): 96%; pest or weed control at 4470 µg/mL (Aedes aegypti [3]; 4.47 mg/mL (Table 1)): 98%; pest or weed control at 10000 µg/mL (Aedes aegypti [3]; 10 mg/mL (Table 1)): 96%; pest or weed control at 3.2 µg/mL (Anopheles gambiae; Anopheles gambiae, 0.0032 mg/mL (Table 5), read-out: Percentage of repellence of mosquitoes Anopheles gambiae landing on the warm body): 0%; pest or weed control at 7.1 µg/mL (Anopheles gambiae; Anopheles gambiae, 0.0071 mg/mL (Table 5), read-out: Percentage of repellence of mosquitoes Anopheles gambiae landing on the warm body): 5%; pest or weed control at 16 µg/mL (Anopheles gambiae; Anopheles gambiae, 0.016 mg/mL (Table 5), read-out: Percentage of repellence of mosquitoes Anopheles gambiae landing on the warm body): 78%; pest or weed control at 53 µg/mL (Anopheles gambiae; Anopheles gambiae, 0.053 mg/mL (Table 5), read-out: Percentage of repellence of mosquitoes Anopheles gambiae landing on the warm body): 23%; pest or weed control at 80 µg/mL (Anopheles gambiae; Anopheles gambiae, 0.08 mg/mL (Table 5), read-out: Percentage of repellence of mosquitoes Anopheles gambiae landing on the warm body): 0%; pest or weed control at 400 µg/mL (Anopheles gambiae; Anopheles gambiae, 0.4 mg/mL (Table 5), read-out: Percentage of repellence of mosquitoes Anopheles gambiae landing on the warm body): 94%; pest or weed control at 2000 µg/mL (Anopheles gambiae; Anopheles gambiae, 2 mg/mL (Table 5), read-out: Percentage of repellence of mosquitoes Anopheles gambiae landing on the warm body): 95%; pest or weed control at 4470 µg/mL (Anopheles gambiae; Anopheles gambiae, 4.47 mg/mL (Table 5), read-out: Percentage of repellence of mosquitoes Anopheles gambiae landing on the warm body): 100%; pest or weed control at 10000 µg/mL (Anopheles gambiae; Anopheles gambiae, 10 mg/mL (Table 5), read-out: Percentage of repellence of mosquitoes Anopheles gambiae landing on the warm body): 98%; repulsion (Anopheles gambiae; all doses ≥0.04% applied on the Warm Body (Table 5)): > 90%
